Several values for one entry are separate records, joined by “and”; a condition that tells them apart may be missing. Equal entries are not always repeated. Blank lines part the entries; values can stand above or below the substance they belong to.
Tests used:
[1] = target: T1, TK1 (Homo sapiens, UniProt P04183); test: Enzyme kinetic studies; assay type: biochemical; details: 1.95–500 μM nucleoside analogue and 100 μM ATP
T1 sequence (P04183 1-234): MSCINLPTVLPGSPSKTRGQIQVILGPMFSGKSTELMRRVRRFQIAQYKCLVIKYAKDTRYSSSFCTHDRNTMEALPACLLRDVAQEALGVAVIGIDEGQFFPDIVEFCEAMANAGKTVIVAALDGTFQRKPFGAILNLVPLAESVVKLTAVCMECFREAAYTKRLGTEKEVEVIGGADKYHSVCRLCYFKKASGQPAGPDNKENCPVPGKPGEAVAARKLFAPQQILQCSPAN

[2] = Stability during storage in aqueous solutions; assay type: physicochemical
[3] = target: T1, TK1; test: Phosphate transfer assay; assay type: biochemical; details: 100 μM nucleoside analogue and 100 μM ATP
[4] = target: T1, TK1; test: Competitive TK1 inhibition studies; details: 0.5 μM dThd, 5 mM ATP, 0–250.00 μM nucleoside analogue
[5] = test system: TK1(+)- and TK1(−) L929 cells; details: cited from earlier work
[6] = test system: rats bearing intracerebral RG2 gliomas; test: In vivo biodistribution study, boron determination by ICP-OES; set-up: species or system rat
[7] = test system: RG2 glioma cells; test: In vitro metabolomic HRMS study; assay type: cell-based, rat

Substance: 3-({4-[4-(closo-1,7-Carboranyl)butyl]amino}butyl)thymidine [Compound 22]
Km [1]: 39.8 ± 10.4 µM
kcat [1]: 5.4 s⁻¹
rkcat/Km (kcat/Km relative to that of 1) [1]: 3.7%
Stability during storage [2]: stable
rPR (phosphorylation rate relative to that of dThd) [3]: 38% and 38.0 ± 6.5%
IC50 [4]: > 250 µM

Substance: 3-({2-[3-(closo-1,7-carboranyl)propyl]amino}-2-oxoethyl)thymidine [Compound 29]
rPR (phosphorylation rate relative to that of dThd) [3]: 14.5 ± 4.8%

Substance: 3-({2-[4-(closo-1,7-Carboranyl)butyl]amino}ethyl)thymidine [Compound 18]
rPR (phosphorylation rate relative to that of dThd) [3]: 44.4 ± 8.7%

Substance: 3-({2-[3-(closo-1,7-Carboranyl)propyl]amino}ethyl)thymidine [Compound 17]
rPR (phosphorylation rate relative to that of dThd) [3]: 24.5 ± 7.8%

Substance: 3-({2-[2-(closo-1,7-Carboranyl)ethyl]amino}ethyl)thymidine [Compound 16]
rPR (phosphorylation rate relative to that of dThd) [3]: 35.2 ± 5.3%

Substance: 3-({2-[2-(closo-1,7-Carboranyl)ethyl]amino}-2-oxoethyl)thymidine [Compound 28]
rPR (phosphorylation rate relative to that of dThd) [3]: 19.2 ± 4.5%

Substance: 3-({2-[4-(closo-1,7-carboranyl)butyl]amino}-2-oxoethyl)thymidine [Compound 30]
rPR (phosphorylation rate relative to that of dThd) [3]: 12.3 ± 8.7%

Substance: 3-{[3-(closo-1,7-Carboranyl)propyl]amino}thymidine [Compound 9]
rPR (phosphorylation rate relative to that of dThd) [3]: ~ 30%

Now from value to substance, other results behind:

Km [1]: 80.1 ± 37.6 µM
kcat [1]: 5.9 s⁻¹
rkcat/Km (kcat/Km relative to that of 1) [1]: 2.0%
Stability during storage [2]: stable
rPR (phosphorylation rate relative to that of dThd) [3]: 45% and 45.2 ± 3.8%
IC50 [4]: > 250 µM
Substance: 3-({4-[3-(closo-1,7-Carboranyl)propyl]amino}butyl)thymidine [Compound 21]

rPR (phosphorylation rate relative to that of dThd) [3]: 18.8 ± 4.8%
Substance: 3-({3-[3-(closo-1,7-Carboranyl)propyl]amino}propyl)thymidine [Compound 19]

rPR (phosphorylation rate relative to that of dThd) [3]: 19.5 ± 5.3%
Substance: 3-({3-[4-(closo-1,7-Carboranyl)butyl]amino}propyl)thymidine [Compound 20]

Km [1]: 24.3 ± 2.1 µM
kcat [1]: 5.1 s⁻¹
rkcat/Km (kcat/Km relative to that of 1) [1]: 5.8%
Boron concentration, Tumor ([6]; 100 μg boron i.c. by ALZET pump over 24 h, RG2 glioma, Fischer rats): 8.9 µg/g and 8.8 ± 2.9 µg/g
Ratio T/Bl (tumor/blood ratio) ([6]; tumor to blood boron ratio, i.c. over 24 h): 9.3
Ratio T/B ([6]; tumor to brain boron ratio, i.c. over 24 h): 4.3
Stability during storage [2]: stable
rPR (phosphorylation rate relative to that of dThd) [3]: 40.0% and 40.0 ± 11.2%
Di- and triphosphate metabolites ([7]; RG2 cells, HRMS positive and negative ion mode): could not be detected
5′-Monophosphate metabolite formation ([7]; TK1(+) RG2 cells, 17.5 μM, 2 hours, HRMS): monophosphorylated
IC50 [4]: 37.5 ± 6.3 µM
Substance: 3-[5-{2-(2,3-dihydroxyprop-1-yl)-o-carboran-1-yl}pentan-1-yl]thymidine [Compound 2]
Di- and triphosphorylation ([5]; TK1(+) L929 cells): did not seem to occur
Intracellular monophosphate metabolite formation ([5]; TK1(+) vs TK1(−) L929 cells, tritiated compound): production of tritiated 2-MP in TK1(+) L929 cells but not in their TK1(−) L929 counterparts
